Laboratory results as given in patent US12723063B2, “GIPR-agonist compounds” (Eli Lilly and Company, priority 2019, dated 2026).
*1 amine or outer side, *2 acyl side, *3 side chain or, on linkers, in order; H or OH if unused. Where a SMILES comes first, the peptide text is derived from it. Side-chain parts run from the residue outwards. [ ]: non-standard residue; d: D form. The star is where a group is joined. C20 diacid = O=C(O)CCCCCCCCCCCCCCCCCCC(=O)*; γGlu = O=C(O)[C@H](CCC(=O)[*:2])N[*:1]; αMeY = C[C@](N)(Cc1ccc(O)cc1)C(=O)O; αMeL = CC(C)C[C@](C)(N)C(=O)O; Orn = NCCC[C@H](N)C(=O)O; AEEA = NCCOCCOCC(=O)O; Aib = CC(C)(N)C(=O)O

Tests used:
Experiment in all cases: cAMP functional assay (HTRF) in HEK293 cells in presence of 0.1% casein
Type in all cases: cell-based
[1] = target: T1, human glucose-dependent insulinotropic peptide receptor (GIPR) (Homo sapiens, UniProt P48546); details: HEK293 cells expressing human GIPR, geometric mean, read-out: hGIPR cAMP Rel EC50 nM (SEM, n)
T1 construct: expressed in transfected cells; host or cells: HEK293
T1 sequence (P48546 22-466): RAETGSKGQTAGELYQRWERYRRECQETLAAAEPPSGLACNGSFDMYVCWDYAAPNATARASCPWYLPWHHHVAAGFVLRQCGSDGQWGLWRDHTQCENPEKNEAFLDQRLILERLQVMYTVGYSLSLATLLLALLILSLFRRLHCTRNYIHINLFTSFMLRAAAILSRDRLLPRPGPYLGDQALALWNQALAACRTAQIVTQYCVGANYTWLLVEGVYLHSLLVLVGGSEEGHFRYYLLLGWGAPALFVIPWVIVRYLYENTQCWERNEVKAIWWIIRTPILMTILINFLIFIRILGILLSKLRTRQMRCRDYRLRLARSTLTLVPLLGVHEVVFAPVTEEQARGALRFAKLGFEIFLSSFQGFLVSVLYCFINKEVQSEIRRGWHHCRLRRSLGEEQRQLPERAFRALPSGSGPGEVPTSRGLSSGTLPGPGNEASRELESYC

[2] = target: T2, human glucagon receptor (GcgR) (Homo sapiens, UniProt P47871); details: HEK293 cells expressing human GcgR, geometric mean, read-out: hGcgR cAMP Rel EC50 nM (SEM, n)
T2 construct: expressed in transfected cells; host or cells: HEK293

[3] = target: T3, human GLP-1 receptor (GLP-1R) (Homo sapiens, UniProt P43220); details: HEK293 cells expressing human GLP-1R, geometric mean, read-out: hGLP1R cAMP Rel EC50 nM (SEM, n)
T3 construct: expressed in transfected cells; host or cells: HEK293
T3 sequence (P43220 24-463): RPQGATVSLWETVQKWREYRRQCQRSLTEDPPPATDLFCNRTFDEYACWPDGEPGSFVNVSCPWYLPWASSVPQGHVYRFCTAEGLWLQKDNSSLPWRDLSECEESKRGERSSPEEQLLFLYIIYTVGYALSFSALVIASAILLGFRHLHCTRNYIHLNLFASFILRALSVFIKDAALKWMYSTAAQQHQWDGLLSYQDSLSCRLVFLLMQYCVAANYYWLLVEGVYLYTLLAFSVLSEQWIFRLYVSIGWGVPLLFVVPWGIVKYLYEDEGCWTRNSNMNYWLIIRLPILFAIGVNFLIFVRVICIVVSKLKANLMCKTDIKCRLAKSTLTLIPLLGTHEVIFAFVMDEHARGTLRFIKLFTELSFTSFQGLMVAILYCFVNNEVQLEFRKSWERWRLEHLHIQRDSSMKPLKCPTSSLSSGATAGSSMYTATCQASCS

T2 sequence (P47871 26-477): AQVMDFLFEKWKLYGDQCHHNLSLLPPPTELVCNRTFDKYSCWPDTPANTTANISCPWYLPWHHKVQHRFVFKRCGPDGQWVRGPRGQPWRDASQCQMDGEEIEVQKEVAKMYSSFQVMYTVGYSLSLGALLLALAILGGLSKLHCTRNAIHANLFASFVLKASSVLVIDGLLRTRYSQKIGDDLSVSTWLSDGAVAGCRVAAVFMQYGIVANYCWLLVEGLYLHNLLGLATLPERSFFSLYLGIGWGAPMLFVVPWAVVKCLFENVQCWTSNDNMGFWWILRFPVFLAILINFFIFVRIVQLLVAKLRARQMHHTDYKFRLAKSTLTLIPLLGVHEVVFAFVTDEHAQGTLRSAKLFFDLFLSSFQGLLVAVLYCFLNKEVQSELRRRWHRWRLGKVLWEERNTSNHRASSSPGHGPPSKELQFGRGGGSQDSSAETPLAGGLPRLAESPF

Row | Structure (SMILES) | EC50 [1] [nM] | EC50 [2] [nM] | EC50 [3] [nM]
1 | CC[C@H](C)[C@H](NC(=O)[C@H](CO)NC(=O)[C@H](Cc1ccc(O)cc1)NC(=O)[C@H](CC(=O)O)NC(=O)[C@H](CO)NC(=O)[C@@H](NC(=O)[C@H](Cc1ccccc1)NC(=O)[C@@H](NC(=O)CNC(=O)[C@H](CCC(=O)O)NC(=O)[C@@H](C)NC(=O)[C@@H](N)Cc1ccc(O)cc1)[C@@H](C)O)[C@@H](C)CC)C(=O)N[C@@H](CC(C)C)C(=O)N[C@@H](CC(C)C)C(=O)N[C@@H](CC(=O)O)C(=O)N[C@@H](CCCCN)C(=O)N[C@@H](CCCCNC(=O)COCCOCCNC(=O)COCCOCCNC(=O)CC[C@H](NC(=O)CCCCCCCCCCCCCCCCCCC(=O)O)C(=O)O)C(=O)N[C@@H](Cc1c[nH]cn1)C(=O)N[C@@H](CCC(N)=O)C(=O)N[C@@H](CCC(N)=O)C(=O)N[C@@H](CC(=O)O)C(=O)N[C@@H](Cc1ccccc1)C(=O)N[C@H](C(=O)N[C@@H](CC(N)=O)C(=O)N[C@@H](Cc1ccc(O)cc1)C(=O)N[C@@H](CC(C)C)C(=O)N[C@@H](CC(C)C)C(=O)N[C@@H](C)C(=O)N[C@@H](CCC(N)=O)C(=O)NCC(=O)N1CCC[C@H]1C(=O)N[C@@H](CO)C(=O)N[C@@H](CO)C(=O)NCC(=O)N[C@@H](C)C(=O)N1CCC[C@H]1C(=O)N1CCC[C@H]1C(=O)N1CCC[C@H]1C(=O)N[C@@H](CO)C(N)=O)C(C)C [Example 15] (H-Y[dA]EGTFISDYSILLDKK([AEEA-AEEA-γGlu-C20 diacid])HQQDFVNYLLAQGPSSGAPPPS-NH2) | 0.282 | > 5000 | > 100
2 | CC[C@H](C)[C@H](NC(=O)[C@H](CCCN)NC(=O)[C@H](CC(=O)O)NC(=O)[C@H](CC(C)C)NC(=O)[C@](C)(CC(C)C)NC(=O)[C@@H](NC(=O)[C@H](CO)NC(=O)[C@H](Cc1ccc(O)cc1)NC(=O)[C@H](CC(=O)O)NC(=O)[C@H](CO)NC(=O)[C@@H](NC(=O)[C@H](Cc1ccccc1)NC(=O)[C@@H](NC(=O)CNC(=O)[C@H](CCC(=O)O)NC(=O)C(C)(C)NC(=O)[C@@H](N)Cc1ccc(O)cc1)[C@@H](C)O)[C@@H](C)CC)[C@@H](C)CC)C(=O)N[C@@H](Cc1c[nH]cn1)C(=O)N[C@@H](CCC(N)=O)C(=O)NC(C)(C)C(=O)N[C@@H](CCC(=O)O)C(=O)N[C@@H](Cc1ccccc1)C(=O)N[C@H](C(=O)N[C@H](CCC(=O)O)C(=O)N[C@@H](Cc1ccc(O)cc1)C(=O)N[C@@H](CCCCNC(=O)COCCOCCNC(=O)COCCOCCNC(=O)CC[C@H](NC(=O)CCCCCCCCCCCCCCCCCCC(=O)O)C(=O)O)C(=O)N[C@@H](CC(C)C)C(=O)N[C@@H](CCC(=O)O)C(=O)NCC(=O)NCC(=O)N1CCC[C@H]1C(=O)N[C@@H](CO)C(=O)N[C@@H](CO)C(=O)NCC(=O)N[C@@H](C)C(=O)N1CCC[C@H]1C(=O)N1CCC[C@H]1C(=O)N1CCC[C@H]1C(=O)N[C@@H](CO)C(N)=O)C(C)C [Example 102] (H-Y[Aib]EGTFISDYSI[αMeL]LD[Orn]IHQ[Aib]EFV[dE]YK([AEEA-AEEA-γGlu-C20 diacid])LEGGPSSGAPPPS-NH2) | 0.0166 | > 5000 | > 5000
3 | CC[C@H](C)[C@H](NC(=O)[C@H](Cc1ccccc1)NC(=O)[C@@H](NC(=O)CNC(=O)[C@H](CCC(=O)O)NC(=O)C(C)(C)NC(=O)[C@@H](N)Cc1ccc(O)cc1)[C@@H](C)O)C(=O)N[C@@H](CO)C(=O)N[C@@H](CC(=O)O)C(=O)N[C@@H](Cc1ccc(O)cc1)C(=O)N[C@@H](CO)C(=O)N[C@H](C(=O)N[C@@](C)(CC(C)C)C(=O)N[C@@H](CC(C)C)C(=O)N[C@@H](CC(=O)O)C(=O)N[C@@H](CCCCN)C(=O)N[C@@H](CCCCNC(=O)COCCOCCNC(=O)COCCOCCNC(=O)CC[C@H](NC(=O)CCCCCCCCCCCCCCCCCCC(=O)O)C(=O)O)C(=O)N[C@@H](Cc1c[nH]cn1)C(=O)N[C@@H](CCC(N)=O)C(=O)NC(C)(C)C(=O)N[C@@H](CC(=O)O)C(=O)N[C@@H](Cc1ccccc1)C(=O)N[C@H](C(=O)N[C@@H](CCC(=O)O)C(=O)N[C@@](C)(Cc1ccc(O)cc1)C(=O)N[C@@H](CC(C)C)C(=O)N[C@@H](CC(C)C)C(=O)N[C@@H](CCC(=O)O)C(=O)N[C@@H](C)C(=O)NCC(=O)N1CCC[C@H]1C(=O)N[C@@H](CO)C(=O)N[C@@H](CO)C(=O)NCC(=O)N[C@@H](C)C(=O)N1CCC[C@H]1C(=O)N1CCC[C@H]1C(=O)N1CCC[C@H]1C(=O)N[C@@H](CO)C(N)=O)C(C)C)[C@@H](C)CC [Example 90] (H-Y[Aib]EGTFISDYSI[αMeL]LDKK([AEEA-AEEA-γGlu-C20 diacid])HQ[Aib]DFVE[αMeY]LLEAGPSSGAPPPS-NH2) | 0.0272 | > 5000 | > 5000
4 | CC[C@H](C)[C@H](NC(=O)[C@H](CCCCN)NC(=O)[C@H](CC(=O)O)NC(=O)[C@H](CC(C)C)NC(=O)[C@](C)(CC(C)C)NC(=O)[C@@H](NC(=O)[C@H](CO)NC(=O)[C@H](Cc1ccc(O)cc1)NC(=O)[C@H](CC(=O)O)NC(=O)[C@H](CO)NC(=O)[C@@H](NC(=O)[C@H](Cc1ccccc1)NC(=O)[C@@H](NC(=O)CNC(=O)[C@H](CCC(=O)O)NC(=O)C(C)(C)NC(=O)[C@@H](N)Cc1ccc(O)cc1)[C@@H](C)O)[C@@H](C)CC)[C@@H](C)CC)C(=O)N[C@@H](Cc1c[nH]cn1)C(=O)N[C@@H](CCC(N)=O)C(=O)NC(C)(C)C(=O)N[C@@H](CC(=O)O)C(=O)N[C@@H](Cc1ccccc1)C(=O)N[C@H](C(=O)N[C@@H](CCC(=O)O)C(=O)N[C@@H](Cc1ccc(O)cc1)C(=O)N[C@@H](CCCCNC(=O)COCCOCCNC(=O)COCCOCCNC(=O)CC[C@H](NC(=O)CCCCCCCCCCCCCCCCCCC(=O)O)C(=O)O)C(=O)N[C@@H](CC(C)C)C(=O)N[C@@H](CCC(=O)O)C(=O)N[C@@H](CCC(N)=O)C(=O)NCC(=O)N1CCC[C@H]1C(=O)N[C@@H](CO)C(=O)N[C@@H](CO)C(=O)NCC(=O)N[C@@H](C)C(=O)N1CCC[C@H]1C(=O)N1CCC[C@H]1C(=O)N1CCC[C@H]1C(=O)N[C@@H](CO)C(N)=O)C(C)C [Example 92] (H-Y[Aib]EGTFISDYSI[αMeL]LDKIHQ[Aib]DFVEYK([AEEA-AEEA-γGlu-C20 diacid])LEQGPSSGAPPPS-NH2) | 0.0191 | > 5000 | > 5000
5 | CC[C@H](C)[C@H](NC(=O)[C@H](Cc1ccccc1)NC(=O)[C@@H](NC(=O)CNC(=O)[C@H](CCC(=O)O)NC(=O)C(C)(C)NC(=O)[C@@H](N)Cc1ccc(O)cc1)[C@@H](C)O)C(=O)N[C@@H](CO)C(=O)N[C@@H](CC(=O)O)C(=O)N[C@@H](Cc1ccc(O)cc1)C(=O)N[C@@H](CO)C(=O)N[C@H](C(=O)N[C@@](C)(CC(C)C)C(=O)N[C@@H](CC(C)C)C(=O)N[C@@H](CC(=O)O)C(=O)N[C@@H](CCC(=O)O)C(=O)N[C@@H](CCCCNC(=O)COCCOCCNC(=O)COCCOCCNC(=O)CC[C@H](NC(=O)CCCCCCCCCCCCCCCCCCC(=O)O)C(=O)O)C(=O)N[C@@H](Cc1c[nH]cn1)C(=O)N[C@@H](CCC(N)=O)C(=O)NC(C)(C)C(=O)N[C@@H](CC(=O)O)C(=O)N[C@@H](Cc1ccccc1)C(=O)N[C@H](C(=O)N[C@@H](CCC(=O)O)C(=O)N[C@@H](Cc1ccncc1)C(=O)N[C@@H](CC(C)C)C(=O)N[C@@H](CC(C)C)C(=O)N[C@@H](C)C(=O)NCC(=O)NCC(=O)N1CCC[C@H]1C(=O)N[C@@H](CO)C(=O)N[C@@H](CO)C(=O)NCC(=O)N[C@@H](C)C(=O)N1CCC[C@H]1C(=O)N1CCC[C@H]1C(=O)N1CCC[C@H]1C(=O)N[C@@H](CO)C(N)=O)C(C)C)[C@@H](C)CC [Example 86] | 0.03 | > 5000 | > 5000
6 | CC[C@H](C)[C@H](NC(=O)[C@H](CCCN)NC(=O)[C@H](CC(=O)O)NC(=O)[C@H](CC(C)C)NC(=O)[C@](C)(CC(C)C)NC(=O)[C@@H](NC(=O)[C@H](CO)NC(=O)[C@H](Cc1ccc(O)cc1)NC(=O)[C@H](CC(=O)O)NC(=O)[C@H](CO)NC(=O)[C@@H](NC(=O)[C@H](Cc1ccccc1)NC(=O)[C@@H](NC(=O)CNC(=O)[C@H](CCC(=O)O)NC(=O)C(C)(C)NC(=O)[C@@H](N)Cc1ccc(O)cc1)[C@@H](C)O)[C@@H](C)CC)[C@@H](C)CC)C(=O)N[C@@H](Cc1c[nH]cn1)C(=O)N[C@@H](CCC(N)=O)C(=O)NC(C)(C)C(=O)N[C@@H](CCC(=O)O)C(=O)N[C@@H](Cc1ccccc1)C(=O)N[C@H](C(=O)N[C@H](CCC(=O)O)C(=O)N[C@@H](Cc1ccc(O)cc1)C(=O)N[C@@H](CCCCNC(=O)COCCOCCNC(=O)COCCOCCNC(=O)CC[C@H](NC(=O)CCCCCCCCCCCCCCCCC(=O)O)C(=O)O)C(=O)N[C@@H](CC(C)C)C(=O)N[C@@H](CCC(=O)O)C(=O)NCC(=O)NCC(=O)N1CCC[C@H]1C(=O)N[C@@H](CO)C(=O)N[C@@H](CO)C(=O)NCC(=O)N[C@@H](C)C(=O)N1CCC[C@H]1C(=O)N1CCC[C@H]1C(=O)N1CCC[C@H]1C(=O)N[C@@H](CO)C(N)=O)C(C)C [Example 7] | 0.0219 | > 5000 | > 5000
